pIC50: −log10 of the molar value.
Experiments:
Assay type in all cases: biochemical
Jak2 (a.a. 828-1132) = Jak2 (a.a. 828-1132) (Homo sapiens (Human), UniProt O60674); test: In vitro JAK kinase assay (HTRF, phosphorylation of a biotinylated peptide), JAK2; settings: measured at 1 mM ATP
Summary of the method: (§1)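 N-terminally His-tagged catalytic domains, baculovirus-expressed in insect cells and purified, were used as enzyme. Reactions ran 1 hr at room temperature and were stopped with a mix of 45 mM EDTA, 300 nM SA-APC and 6 nM Eu-Py20. The HTRF signal was read after 40 min of antibody binding.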

[1] = biological target: human JAK1 (a.a. 837-1142); test: In vitro JAK kinase assay (HTRF, phosphorylation of a biotinylated peptide), JAK1; settings: ratio of JAK2 IC50 to JAK1 IC50, measured at 1 mM ATP
Summary of the method: as §1

[2] = biological target: human JAK1 (a.a. 837-1142) (Homo sapiens, UniProt P23458); test: as above; settings: measured at 1 mM ATP
Summary of the method: as §1

Jak2 (a.a. 828-1132), sequence (O60674 828-1132): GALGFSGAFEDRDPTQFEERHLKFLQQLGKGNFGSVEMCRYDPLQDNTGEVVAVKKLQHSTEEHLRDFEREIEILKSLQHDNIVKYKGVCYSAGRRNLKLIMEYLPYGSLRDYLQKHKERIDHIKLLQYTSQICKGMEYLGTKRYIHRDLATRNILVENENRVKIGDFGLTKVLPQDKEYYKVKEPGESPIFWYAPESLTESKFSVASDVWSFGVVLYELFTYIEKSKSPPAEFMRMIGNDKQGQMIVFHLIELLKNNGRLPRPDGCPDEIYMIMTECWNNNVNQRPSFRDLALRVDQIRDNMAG

Structure (SMILES)	pIC50 (Jak2 (a.a. 828-1132))	IC50 Ratio JAK2/JAK1 [1]	pIC50 [2]
N#CCC1(n2cc(-c3ncnc4[nH]ccc34)cn2)CN(C2CC3CCC(C2)N3C(=O)c2ccnc(C(F)(F)F)c2F)C1 (stereo not drawn) [Example 142, {1-{8-[3-fluoro-2-(trifluoromethyl)isonicotinoyl]-8-azabicyclo[3.2.1]oct-3-yl}-3-[4-(7H-pyrrolo[2,3-d]pyrimidin-4-yl)-1H-pyrazol-1-yl]azetidin-3-yl}acetonitrile]	≥ 8.00	7.4	≥ 8.30
N#CCC1(n2cc(-c3ncnc4[nH]ccc34)cn2)CN(C2CCN(C(=O)c3c(F)cc(F)cc3F)CC2)C1 [Example 49, {3-[4-(7H-pyrrolo[2,3-d]pyrimidin-4-yl)-1H-pyrazol-1-yl]-1-[1-(2,4,6-trifluorobenzoyl)piperidin-4-yl]azetidin-3-yl}acetonitrile]	≥ 8.00	6.5	≥ 8.30
N#CCC1(n2cc(-c3ncnc4[nH]ccc34)cn2)CN(C2CCN(C(=O)c3cc(CO)nc(C(F)(F)F)n3)CC2)C1 [Example 381, {1-(1-{[6-(hydroxymethyl)-2-(trifluoromethyl)pyrimidin-4-yl]carbonyl}piperidin-4-yl)-3-[4-(7H-pyrrolo[2,3-d]pyrimidin-4-yl)-1H-pyrazol-1-yl]azetidin-3-yl}acetonitrile]	7.30 to 8.00	20	≥ 8.30
N#CCC1(n2ccc(-c3ncnc4[nH]ccc34)c2)CN(C2CCN(C(=O)Nc3ccc(Cl)cc3C#N)CC2)C1 [Example 293, 4-{3-(cyanomethyl)-3-[3-(7H-pyrrolo[2,3-d]pyrimidin-4-yl)-1H-pyrrol-1-yl]azetidin-1-yl}-N-(4-chloro-2-cyanophenyl)piperidine-1-carboxamide]	7.30 to 8.00	3.4	≥ 8.30
N#CCC1(n2ccc(-c3ncnc4[nH]ccc34)c2)CN(C2CCN(C(=O)Nc3ccc(F)cc3F)CC2)C1 [Example 286, 4-{3-(cyanomethyl)-3-[3-(7H-pyrrolo[2,3-d]pyrimidin-4-yl)-1H-pyrrol-1-yl]azetidin-1-yl}-N-(2,4-difluorophenyl)piperidine-1-carboxamide]	7.30 to 8.00	13.1	≥ 8.30

Second part, the compound after the results:

pIC50 (Jak2 (a.a. 828-1132))	IC50 Ratio JAK2/JAK1 [1]	pIC50 [2]	Structure (SMILES)
≥ 8.00	0.9	7.70 to 8.30	N#CCC1(n2cc(-c3ncnc4[nH]ccc34)cn2)CN(C2CCN(C(=O)c3cnc4ccccc4c3)CC2)C1 [Example 88, {3-[4-(7H-pyrrolo[2,3-d]pyrimidin-4-yl)-1H-pyrazol-1-yl]-1-[1-(quinolin-3-ylcarbonyl)piperidin-4-yl]azetidin-3-yl}acetonitrile]
7.30 to 8.00	9.4	≥ 8.30	N#CCC1(n2cc(-c3ncnc4[nH]ccc34)cn2)CN(C2CCN(C(=O)c3cc(Cl)cc(C(F)(F)F)n3)CC2)C1 [Example 53, {1-(1-{[4-chloro-6-(trifluoromethyl)pyridin-2-yl]carbonyl}piperidin-4-yl)-3-[4-(7H-pyrrolo[2,3-d]pyrimidin-4-yl)-1H-pyrazol-1-yl]azetidin-3-yl}acetonitrile]
7.00 to 7.30	11.0	7.70 to 8.30	N#CCC1(n2cc(-c3ncnc4[nH]ccc34)cn2)CN(C2CCN(C(=O)C3CCCCC3)CC2)C1 [Example 8, {1-[1-(cyclohexylcarbonyl)piperidin-4-yl]-3-[4-(7H-pyrrolo[2,3-d]pyrimidin-4-yl)-1H-pyrazol-1-yl]azetidin-3-yl}acetonitrile]
7.30 to 8.00	2.7	7.70 to 8.30	N#CCC1(n2ccc(-c3ncnc4[nH]ccc34)c2)CN(C2CCN(C(=O)c3cnc(C(F)(F)F)cn3)CC2)C1 [Example 347, [3-[3-(7H-Pyrrolo[2,3-d]pyrimidin-4-yl)-1H-pyrrol-1-yl]-1-(1-{[5-(trifluoromethyl)pyrazin-2-yl]carbonyl}piperidin-4-yl)azetidin-3-yl]acetonitrile]

— US9999619B2, “Piperidin-4-yl azetidine derivatives as JAK1 inhibitors” (Incyte Corporation, priority 2010, dated 2018)
